In US11815435B2, “Beta glucan immunopharmacodynamics” (HiberCell, Inc., priority 2017, dated 2023):
“Also recorded” adds a separate entry of the source.

Columns and labels:
Assay type in all cases: in vivo, human
[1] = test system: circulating immune complexes (CIC); experiment: Circulating immune complex (CIC) formation in serum by ELISA after IV PGG; conditions: single dose PGG IV, at EOI
Experimental: (§1) IPD changes induced by yeast soluble β-glucan were evaluated in a Phase I healthy donor trial, which included three cohorts of 12 healthy human volunteers aged 18-65 years. In Cohort 1, subjects were administered a single dose of 4 mg/kg yeast soluble β-glucan by IV infusion over 2-3 hours. In Cohort 2, subjects were administered 4 mg/kg PGG by IV infusion over 2-3 hours once weekly for 3 weeks. Half of the subjects received premedications which included low dose corticosteroids (4 mg of dexamethasone, PO) and low-dose H1 antagonists (50 mg diphenhydramine.
Subjects were stratified/classified into subgroups based on pre-infusion ABA levels. ABA cutoff levels were selected based on prior studies and are only exemplary. Classification may include only 2 subgroups based on an IgG ABA cutoff level of 15 μg/ml, 20 μg/ml, 25, μg/ml, 30 μg/ml, 35 μg/ml, 40 μg/ml, 45 μg/ml or 50 μg/ml. Classification may also include 3, 4, 5 or more subgroups with each subgroup corresponding to a specific IgG ABA level range. For example, a 3 subgroup classification may include a Low-ABA subgroup encompassing ABA level ranges of <15 μg/ml, <20 μg/ml, <25 μg/ml or <30 μg/ml, a Mid-ABA subgroup encompassing a range having a low end ABA level of 20 μg/ml, 25 μg/ml, 30 μg/ml, 35 μg/ml, 40 μg/ml or 45 μg/ml and a high end ABA level of 30 μg/ml, 35 μg/ml, 40 μg/ml, 45 μg/ml, 50 μg/ml or 55 μg/ml, and a High-ABA subgroup encompassing ABA level ranges of >35 μg/ml, >40 μg/ml, >45 μg/ml, >50 μg/ml, >55 μg/ml, >60 μg/ml, >65 μg/ml or >70 μg/ml. As discussed in International Published Application No. WO2015084732A1, various ABA cutoff levels may be used for reasons such as differences in soluble β-glucan immunotherapy treatments and preferences regarding inclusiveness and exclusiveness of subgroups. […] Serum and cellular IPD markers were analyzed pre-infusion, 15 minutes, 30 minutes and 1 hour post-infusion, end of infusion (EOI) and 1 hour, 2 hours, 3 hours, 4 hours, 24 hours, 48 hours and 168 hours after EOI.
Total CIC formation was measured in serum by ELISA (Quidel).

[2] = Adverse events after a single dose of IV PGG without premedication
Experimental: as §1
(§2) In Cohort 3, subjects received either 2 mg/kg PGG or 4 mg/kg PGG by IV infusion over 1-2 hours. The subjects were administered either dose of PGG once weekly for 2 weeks, then given a 2 week wash out (no PGG) and finally received one more dose of PGG (week 5). Adverse events and complete blood counts were evaluated. In addition, whole blood and serum was evaluated for the following at various time points post-infusion: PGG binding to immune cells (monocytes, neutrophils, B-cells, DC subsets), complement activation (C5a and Sc5b9), serum cytokine/chemokine levels, IgG ABA levels, flow cytometry of immune cells, circulating immune complex formation and Quantigene analysis of transcriptional profile. Table 1 lists each subject's pre-dose IgG ABA levels, PGG dose and whether they received premedications.
Adverse events were evaluated for subjects after a single dose of IV PGG. Table 2 lists ABA levels and adverse events for subjects that had not received premedication prior to PGG infusion.

[3] = test system: anti-β-glucan antibody (ABA IgG, ABA IgM); experiment: Example 1: IgG and IgM ABA levels in a cancer subject on IVIG, IMPRIME PGG and pembrolizumab; conditions: same subject and regimen
Experimental: Soluble β-glucan immunotherapy was administered to a subject diagnosed with glucaganoma. The subject's ABA level prior to immunotherapy treatment placed them in the Low-ABA subgroup, and therefore, their ABA level was boosted by administration of IVIG. GAMMAGARD at 100 mg/ml was intravenously administered prior to each treatment, which provided 161 μg ABA/ml. […] Each cycle was 3 weeks.

[4] = test system: IPD responses (SC5b-9, monocyte and neutrophil mobilization, MCP-1, CIC, IL-8); experiment: Immunopharmacodynamic (IPD) responses taken together: dose and dosing interval comparison; conditions: for IPD response: mid ABA (20-50 μg/ml) subjects
Experimental: as §2
Thus, changes in IPD responses induced by PGG administration are dependent on ABA levels.
IPD responses were compared between subjects within subgroups administered doses of either 2 mg/kg and 4 mg/kg PGG. […] Therefore, an effective dose of PGG for Mid-ABA subjects is higher than an effective dose of PGG for High-ABA subjects. This is beneficial to High-ABA subjects because with a lower PGG dose, they will experience fewer adverse events.
Increasing the time between soluble β-glucan doses may not only promote repeated acute IPD responses but also enhance acute IPD responses, which may increase the effectiveness of soluble β-glucan therapy. Subjects in Cohort 3, as described above, were administered a dose of PGG once weekly for 2 weeks, then given a 2 week wash out (no PGG) and finally received one more dose of PGG (week 5).
Levels of CIC (FIG. 19), SC5b-9 (FIG. 20), neutrophil mobilization (FIG. 21), IL-8 (FIG. 22) and MCP-1 (FIG. 22) were also measured over the course of treatment. […] In some cases, acute IPD responses were only seen with the final dose—after the 2 week dosing interval. In other cases, the acute IPD responses were enhanced with the final dose. Thus, for some immunotherapies or even some individuals, increasing the amount of time between dosing with soluble β-glucan may lead to enhanced efficacy.

**Q.** Which “increase in CIC” value ([1]; High-ABA subjects) does the source give for “β(1,6)-[poly-(1,3)-D-glucopyranosyl]-poly-β(1,3)-D-glucopyranose [PGG]” here?
**A.** the highest increase in CIC

**Q.** And the “increase in CIC” value ([1]; Low-ABA subjects)?
**A.** little increase in CIC

**Q.** What about the “increase in CIC” value ([1]; Mid-ABA subjects) of the same substance?
**A.** a greater increase in CIC

**Q.** What about the “adverse events vs ABA level” value ([2]; no premedication) of the same substance?
**A.** more adverse events occurred as ABA levels increased

**Q.** What about the “infusion reaction-related adverse events (CARPA)” value ([2]; no premedication) of the same substance?
**A.** observed in some, but not all, subjects with ABA levels>20 ug/ml

**Q.** And the “Adverse Events (CTCAE grade)” value ([2]; subject 002, pre-dose ABA 34.4, no premedication)?
**A.** None

**Q.** And the “Adverse Events (CTCAE grade)” value ([2]; subject 004, pre-dose ABA 39.7, no premedication)?
**A.** None

**Q.** And the “Adverse Events (CTCAE grade)” value ([2]; subject 006, pre-dose ABA 127, no premedication)?
**A.** Gr 1 chills; also recorded: Gr 2 nausea/emesis; also recorded: Gr 2 chest pressure

**Q.** What about the “Adverse Events (CTCAE grade)” value ([2]; subject 010, pre-dose ABA 177.9, no premedication) of the same substance?
**A.** Gr 1 back pain; also recorded: Gr 2 chest pressure; also recorded: Gr 2 nausea

**Q.** And the “Adverse Events (CTCAE grade)” value ([2]; subject 016, pre-dose ABA 27.6, no premedication)?
**A.** Gr 1 headache

**Q.** And the “Adverse Events (CTCAE grade)” value ([2]; subject 022, pre-dose ABA 87.8, no premedication)?
**A.** Gr 1 chest pressure; also recorded: Gr 1 light headedness; also recorded: Gr 1 abdominal cramping; also recorded: Gr 2 myalgia

**Q.** And the “Adverse Events (CTCAE grade)” value ([2]; subject 025, pre-dose ABA 9.9, no premedication)?
**A.** None

**Q.** What about the “Adverse Events (CTCAE grade)” value ([2]; subject 034, pre-dose ABA 68.0, no premedication) of the same substance?
**A.** Gr 1 chest pressure; also recorded: Gr 1 warm sensation; also recorded: Gr 1 light headedness; also recorded: Gr 1 nausea; also recorded: Gr 1 hand paresthesia; also recorded: Gr 2 chills; also recorded: Gr 3 headache

**Q.** And the “Adverse Events (CTCAE grade)” value ([2]; subject 037, pre-dose ABA 10.4, no premedication)?
**A.** None

**Q.** What about the “Adverse Events (CTCAE grade)” value ([2]; subject 039, pre-dose ABA 13.6, no premedication) of the same substance?
**A.** Gr 1 headache; also recorded: Gr 1 drowsiness

**Q.** And the “Adverse Events (CTCAE grade)” value ([2]; subject 043, pre-dose ABA 32.6, no premedication)?
**A.** Gr 2 headache

**Q.** What about the “Adverse Events (CTCAE grade)” value ([2]; subject 047, pre-dose ABA 33.6, no premedication) of the same substance?
**A.** None

**Q.** And the “Adverse Events (CTCAE grade)” value ([2]; subject 055, pre-dose ABA 56.2, no premedication)?
**A.** Gr 1 nausea; also recorded: Gr 1 flushing; also recorded: Gr 2 chest pressure; also recorded: Gr 2 dyspnea; also recorded: Gr 2 low back pain; also recorded: Gr 2 headache (delayed); also recorded: Gr 2 back pain (delayed); also recorded: Gr 2 neck/shoulder

**Q.** And the “Adverse Events (CTCAE grade)” value ([2]; subject 057, pre-dose ABA 37.3, no premedication)?
**A.** Gr 1 diarrhea

**Q.** What about the “Adverse Events (CTCAE grade)” value ([2]; subject 058, pre-dose ABA 34.0, elevated pre-dose CIC, no premedication) of the same substance?
**A.** Gr 1 dysuria (delayed); also recorded: Gr 2 myalgia (delayed); also recorded: Gr 2 arthralgia

**Q.** And the “Adverse Events (CTCAE grade)” value ([2]; subject 067, pre-dose ABA 15.0, no premedication)?
**A.** Gr 1 LE stiffness

**Q.** And the “Adverse Events (CTCAE grade)” value ([2]; subject 068, pre-dose ABA 26.1, no premedication)?
**A.** None

**Q.** What about the “Adverse Events (CTCAE grade)” value ([2]; subject 070, pre-dose ABA 58.7, no premedication) of the same substance?
**A.** Gr 1 headache

**Q.** And the “ABA IgG” value ([3]; cycle 1, day 2 EOI IMPRIME)?
**A.** 17.9 µg/mL

**Q.** And the “ABA IgM” value ([3]; cycle 1, day 2 EOI IMPRIME)?
**A.** 6.0 µg/mL

**Q.** And the “ABA IgG” value ([3]; cycle 1, day 3)?
**A.** 14.5 µg/mL

**Q.** What about the “ABA IgM” value ([3]; cycle 1, day 3) of the same substance?
**A.** 8.3 µg/mL

**Q.** And the “ABA IgG” value ([3]; cycle 1, day 9)?
**A.** 10.2 µg/mL

**Q.** And the “ABA IgM” value ([3]; cycle 1, day 9)?
**A.** 10.1 µg/mL

**Q.** And the “ABA IgG” value ([3]; cycle 2, day 1 EOI-IMPRIME)?
**A.** 50.4 µg/mL

**Q.** What about the “ABA IgM” value ([3]; cycle 2, day 1 EOI-IMPRIME) of the same substance?
**A.** 11.7 µg/mL

**Q.** And the “ABA IgG” value ([3]; cycle 2, day 1 pre-IVIG)?
**A.** 22.3 µg/mL

**Q.** And the “ABA IgM” value ([3]; cycle 2, day 1 pre-IVIG)?
**A.** 18.5 µg/mL

**Q.** What about the “ABA IgG” value ([3]; cycle 3, day 1 EOI-IMPRIME) of the same substance?
**A.** 57.4 µg/mL

**Q.** What about the “ABA IgG” value ([3]; cycle 3, day 1 pre-IVIG) of the same substance?
**A.** 21.9 µg/mL

**Q.** And the “acute IPD responses (CIC, SC5b-9, neutrophil mobilization, IL-8, MCP-1)” value ([4]; Cohort 3, dosing after a 2 week dosing interval)?
**A.** generated or enhanced

**Q.** And the “changes in IPD responses” value ([4]; low-ABA subjects, PGG administration)?
**A.** very little to no changes in responses

**Q.** And the IPD response ([4]; 2 mg/kg PGG)?
**A.** minimal response

**Q.** What about the IPD response ([4]; 4 mg/kg PGG) of the same substance?
**A.** responded much better (on par with High-ABA subjects)

**Q.** And the “IPD responses, 2 mg/kg vs 4 mg/kg dose” value ([4]; subjects with ABA>50 μg/ml)?
**A.** similar
